Assays:
Experiment in all cases: microbe, parasite or virus in culture
Format in all cases: cell-based, human immunodeficiency virus type 1 (HIV-1)
[1] = test system: HIV-1 L1001-K103N; settings: Human immunodeficiency virus 1, read-out: EC50 L1001-K103N (nM), L1001-K103N mutant
[2] = test system: wild type HIV-1; settings: Human immunodeficiency virus 1, Hela-JC53, read-out: EC50 WT (nM)
[3] = test system: HIV-1 Y188L; settings: Human immunodeficiency virus 1, read-out: EC50 Y188L (nM)
[4] = test system: HIV-1 Y181C; settings: Human immunodeficiency virus 1, read-out: EC50 Y181C (nM), Y181C mutant

Row | Structure (SMILES) | EC50 [1] [nM] | EC50 [2] [nM] | EC50 [3] [nM] | EC50 [4] [nM]
1 | Cc1cc(C)c(Sc2nc(Nc3ccc(C#N)cc3)nc3cc[nH]c23)c(C)c1 [Cpd 51] | 10 to 100 | < 10 | < 10 | < 10
2 | Cc1cc(C2CC2)cc(C)c1Oc1nc(Nc2ccc(C#N)cc2)nc2cc[nH]c12 [Cpd 52] | < 10 | < 10 | < 10 | < 10
3 | Cc1cc(C)c(Sc2nc(Nc3ccc(C#N)cc3)nc3c(Cl)c[nH]c23)c(C)c1 [Cpd 53] | > 100 | < 10 | 10 to 100 | 10 to 100
4 | Cc1cc(C)c(Sc2nc(Nc3ccc(C#N)cc3)nc3c(Cl)cn(Cc4ccccc4)c23)c(C)c1 [Cpd 54] | > 100 | < 10 | 10 to 100 | 10 to 100
5 | Cc1cc(C)c(Sc2nc(Nc3ccc(C#N)cc3)nc3c(Br)c[nH]c23)c(C)c1 [Cpd 55] | > 100 | < 10 | 10 to 100 | 10 to 100
6 | Cc1cc(C#N)cc(C)c1Oc1nc(Nc2ccc(C#N)cc2)nc2c(Cl)cn(Cc3ccccc3)c12 [Cpd 56] | 10 to 100 | 10 to 100 | 10 to 100 | 10 to 100
7 | Cc1cc(C)c(Oc2nc(Nc3ccc(C#N)cc3)nc3ccn(C)c23)c(C)c1 [Cpd 57] | < 10 | < 10 | < 10 | < 10
8 | Cc1cc(Br)cc(C)c1Oc1nc(Nc2ccc(C#N)cc2)nc2ccn(Cc3ccccc3)c12 [Cpd 58] | > 100 | 10 to 100 | > 100 | 10 to 100
9 | Cc1cc(C)c(Oc2nc(Nc3ccc(C#N)cc3)nc3c(Cl)cn(C)c23)c(C)c1 [Cpd 59] | 10 to 100 | 10 to 100 | 10 to 100 | 10 to 100
10 | CC(=O)c1cc(C)c(Oc2nc(Nc3ccc(C#N)cc3)nc3ccn(Cc4ccccc4)c23)c(C)c1 [Cpd 60] | 10 to 100 | < 10 | 10 to 100 | < 10
11 | CC(=O)c1cc(C)c(Oc2nc(Nc3ccc(C#N)cc3)nc3cc[nH]c23)c(C)c1 [Cpd 61] | < 10 | < 10 | < 10 | < 10
12 | Cc1cc(Cl)cc(C)c1Oc1nc(Nc2ccc(C#N)cc2)nc2c(Cl)cn(C)c12 [Cpd 62] | < 10 | < 10 | < 10 | < 10
13 | Cc1cc(Cl)cc(C)c1Oc1nc(Nc2ccc(C#N)cc2)nc2ccn(Cc3ccccc3)c12 [Cpd 63] | > 100 | 10 to 100 | > 100 | 10 to 100
14 | Cc1cc(C)c(Oc2nc(Nc3ccc(C#N)cc3)nc3ccn(Cc4ccccc4)c23)c(C)c1 [Cpd 64] | > 100 | < 10 | > 100 | 10 to 100
15 | Cc1cccc(C)c1Oc1nc(Nc2ccc(C#N)cc2)nc2cc[nH]c12 [Cpd 65] | > 100 | < 10 | < 10 | < 10
16 | Cc1cc(Cl)cc(C)c1Oc1nc(Nc2ccc(C#N)cc2)nc2cc[nH]c12 [Cpd 66] | < 10 | < 10 | < 10 | < 10
17 | CC(=O)c1cc(C)c(Oc2nc(Nc3ccc(C#N)cc3)nc3c(Cl)c[nH]c23)c(C)c1 [Cpd 67] | < 10 | < 10 | 10 to 100 | < 10
18 | Cc1cc(C#N)cc(C)c1Oc1nc(Nc2ccc(C#N)cc2)nc2ccn(C)c12 [Cpd 68] | < 10 | < 10 | < 10 | < 10
19 | Cc1cc(C#N)cc(C)c1Oc1nc(Nc2ccc(C#N)cc2)nc2c(Cl)cn(C)c12 [Cpd 69] | < 10 | < 10 | < 10 | < 10
20 | Cc1cc(C#N)cc(C)c1Oc1nc(Nc2ccc(C#N)cc2)nc2c(Br)cn(C)c12 [Cpd 70] | < 10 | < 10 | < 10 | < 10
21 | Cc1cc(Br)cc(Cl)c1Oc1nc(Nc2ccc(C#N)cc2)nc2cc[nH]c12 [Cpd 71] | < 10 | < 10 | < 10 | < 10
